From the supplement of paper PMC10307832

Tests used:
Assay in all cases: relative viability (nuclei count vs DMSO), 5 days (fraction); higher = more cells survive
[1] = compound: C1CC2=C(C1)C=C(C=C2)OC3=NC(=C4C(=N3)N(C=N4)CC5=CC=C(C=C5)C6=CC=CC=C6)N[C@@H](CC7=CC=CC=C7)CO [QS11] + CC(=O)Nc1cccc(-n2c(=O)n(C3CC3)c(=O)c3c(Nc4ccc(I)cc4F)n(C)c(=O)c(C)c32)c1 [Trametinib] (partner 0.02 µM)
Outline: (§1)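 Five library-drug doses in √10 steps were combined with a fixed anchor-drug dose, or a single drug was given alone, by pin tool to lung cancer cell lines in 1536-well plates the day after seeding. Nuclei were stained and counted after 5 days. Relative viability is the nuclei count in treated wells over that in vehicle wells, taken as the median of duplicate plates.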

[2] = compound: C1CC2=C(C1)C=C(C=C2)OC3=NC(=C4C(=N3)N(C=N4)CC5=CC=C(C=C5)C6=CC=CC=C6)N[C@@H](CC7=CC=CC=C7)CO [QS11] + CS(=O)(=O)N1CCN(Cc2cc3nc(-c4cccc5[nH]ncc45)nc(N4CCOCC4)c3s2)CC1 [Pictilisib] (partner 1 µM)
Outline: as §1

[3] = compound: CC1=C(C=C(C=C1)NC(=O)C2=CC(=CC=C2)C(C)(C)C#N)NC3=CC4=C(C=C3)N=CN(C4=O)C [AZ628] + Cc1nc(NC(=O)N2CCC[C@H]2C(N)=O)sc1-c1ccnc(C(C)(C)C(F)(F)F)c1 [Alpelisib] (partner 2 µM)
Outline: as §1

[4] = compound: C[As](C)SC[C@H](NC(=O)CC[C@H](N)C(=O)O)C(=O)NCC(=O)O [Darinaparsin] + N=C(N)NC(=N)NCCc1ccccc1 [Phenformin] (partner 250 µM)
Outline: as §1

| Cell Line | relative viability ([1]; first compound 0.08 µM) | relative viability ([1]; first compound 0.253 µM) | relative viability ([1]; first compound 0.8 µM) | relative viability ([1]; first compound 2.53 µM) | relative viability ([1]; first compound 8 µM) | relative viability ([2]; first compound 0.08 µM) | relative viability ([2]; first compound 0.253 µM) | relative viability ([2]; first compound 0.8 µM) | relative viability ([2]; first compound 2.53 µM) | relative viability ([2]; first compound 8 µM) | relative viability ([3]; first compound 0.08 µM) | relative viability ([3]; first compound 0.253 µM) | relative viability ([3]; first compound 0.8 µM) | relative viability ([3]; first compound 2.53 µM) | relative viability ([3]; first compound 8 µM) | relative viability ([4]; first compound 0.08 µM) | relative viability ([4]; first compound 0.8 µM) | relative viability ([4]; first compound 2.53 µM) | relative viability ([4]; first compound 8 µM) |
| --- | --- | --- | --- | --- | --- | --- | --- | --- | --- | --- | --- | --- | --- | --- | --- | --- | --- | --- | --- |
| NCI-H23 | 0.359 | 0.385 | 0.283 | 0.297 | 0.318 | 0.394 | 0.413 | 0.405 | 0.433 | 0.361 | 0.745 | 0.622 | 0.305 | 0.501 | 0.377 | 0.935 | 0.839 | 0.86 | 0.842 |
| NCI-H1355 | 0.447 | 0.342 | 0.378 | 0.378 | 0.433 | 0.399 | 0.299 | 0.378 | 0.475 | 0.443 | 0.849 | 0.742 | 0.737 | 0.685 | 0.558 | 0.45 | 0.459 | 0.382 | 0.412 |
| NCI-H1734 | 0.645 | 0.626 | 0.648 | 0.546 | 0.565 | 0.44 | 0.433 | 0.408 | 0.38 | 0.358 | 0.658 | 0.595 | 0.571 | 0.619 | 0.498 | 0.464 | 0.409 | 0.363 | 0.424 |
| EPLC-272H |  | 0.32 | 0.3 | 0.28 | 0.3 | 0.372 | 0.347 | 0.298 | 0.387 | 0.274 | 0.951 | 0.85 | 0.892 | 0.908 | 0.641 |  | 0.237 | 0.251 | 0.267 |
| LXF-289 | 0.671 | 0.711 | 0.583 | 0.621 | 0.629 | 0.761 | 0.796 | 0.673 | 0.704 | 0.754 | 1.01 | 1.01 | 0.963 | 0.961 | 0.626 | 0.556 | 0.523 | 0.471 | 0.556 |
| NCI-H520 | 0.676 | 0.789 | 0.83 | 0.65 | 0.755 |  | 0.343 | 0.27 | 0.321 | 0.275 | 0.908 | 0.826 | 0.733 | 0.819 | 0.52 | 0.669 | 0.481 | 0.453 | 0.625 |
| NCI-H1395 | 0.935 | 1.04 | 1.19 | 1.01 | 1.03 |  | 0.614 | 0.772 | 0.645 | 0.619 | 1.19 | 1.2 | 1.03 | 0.991 | 0.915 | 0.457 | 0.471 | 0.409 | 0.459 |
| H3255 | 0.577 | 0.703 |  | 0.631 | 0.585 | 0.37 | 0.523 |  | 0.541 | 0.537 | 0.724 | 0.653 | 0.75 | 0.747 | 0.496 | 0.381 | 0.384 | 0.363 | 0.332 |
| NCI-H2170 | 0.93 | 0.962 | 0.728 | 1.01 | 1.04 | 0.326 | 0.356 | 0.327 | 0.276 | 0.263 | 0.931 | 0.751 | 0.809 | 0.852 | 0.98 | 0.429 | 0.427 | 0.424 | 0.464 |
